First: CCCCc1cc(Br)c(N=Nc2ccc(N(CCO)CCO)cc2NC(C)=O)c(Br)c1
Second: C=CCOC(=O)NS(=O)(=O)CCc1cc(OCCCC)nn1Cc1ccc(Cl)cc1Cl
The melting point of the first is higher: 157 to 159 °C for the first, 94 to 95 °C for the second.

First: CCOC(=O)c1cc(C)n(-c2cccc(N(C)C)c2)c1-c1ccccc1
Second: CCOC(=O)c1ncn2c(-c3ccccc3)ccnc12
The melting point of the first is lower: 112 to 114 °C for the first, 200 to 204 °C for the second.

First: CC1=NSc2c(F)c(F)c(F)c(F)c2N1Cc1ccc(-c2ccccc2C(=O)OC(C)(C)C)cc1
Second: CCOC(=O)Oc1ccc(S(=O)(=O)N2c3cc(F)c(F)c(F)c3-n3cccc3C2CC)cc1 (stereo not given)
The melting point of the first is higher: 177 to 179 °C for the first, 131 to 132 °C for the second.

Compared with `Clc1cc(Nc2nccc(-c3ccc(N4CCNCC4)nc3)n2)cc(Cl)c1Cl`, `O=C(Nc1cccnc1)N1CCN(c2nccc(-c3ccc(F)cc3)n2)CC1` is higher in melting point: 208 to 211 °C for the first, 233 to 234 °C for the second.

First: CC(=O)c1ccc(CNS(=O)(=O)c2ccc(C)cc2)cc1
Second: COC(=O)c1ccc(-c2cccc([N+](=O)[O-])c2)cc1
The melting point of the first is lower: 125 to 128 °C for the first, 136 to 141 °C for the second.

Compared with `COC(=O)COc1cccc2c(CCN=[N+]=[N-])c(C)oc12`, `COC(=O)CCC(=O)c1ccc(OC)c(CCl)c1` is lower in melting point: 88 to 90 °C for the first, 78 to 80 °C for the second.

First: OCC1(CN(Cc2ccccc2)Cc2ccccc2)CCN(Cc2ccccc2)C1 (stereo not given)
Second: O=C(OCc1ccccc1)C(C(=O)N1CC2C(=O)CCC(c3ccccc3)(c3ccccc3)C2C1)c1ccccc1 (racemic)
The melting point of the first is lower: 65 to 67 °C for the first, 210 °C for the second.

Compared with `O=[N+]([O-])c1ccc2c([N+](=O)[O-])c(O)c(O)cc2c1`, `COC(=O)c1cc(Cl)c(NC(C)=O)c([N+](=O)[O-])c1O` is lower in melting point: 200 to 207 °C for the first, 166 to 169 °C for the second.

First: CC(C)Cn1c(=O)n(C)c(=O)c2c(SCCC(C)O)c(Cc3cccc4ccccc34)sc21 (stereo not given)
Second: CC(C)c1ccc(N(C)C(=O)Cn2cnc3c2c(=O)n(C)c(=O)n3C)cc1
The melting point of the first is lower: 162 to 163 °C for the first, 231 to 233 °C for the second.

First: O=c1[nH]c2ccc(-c3cc(CN4CCC(Cc5ccc(F)cc5)CC4)on3)cc2o1
Second: COc1ccc(CN2CCC(c3cn(CCc4ccsc4)c4cc(F)ccc34)CC2)cc1C(=O)O
The melting point of the first is higher: 237 to 244 °C for the first, 228 to 229 °C for the second.

Compared with `O=C(Nc1cnc2c(c1)OCCN2)c1cc2cc(F)ccc2n1Cc1cccc(F)c1`, `COCCn1c(S(C)=O)nc(-c2ccc(F)cc2)c1-c1ccnc(Nc2ccccc2)c1` (stereo not given) is lower in melting point: 265 to 266 °C for the first, 83 to 85 °C for the second.

`Cc1cc(C2(C(F)(F)F)CC(n3cncn3)=NO2)ccc1NC(=O)c1cccc(I)c1C(=O)NC(C)C` (stereo not given) and `Cc1ccc(C(=O)Nc2cn(C3CCCCO3)nc2C(=O)NCC(F)(F)F)cn1` (stereo not given) cannot be ordered by melting point: 131 to 133 °C for the first, 132 to 133 °C for the second.

First: O=C(NCc1ccc(Cl)cc1)c1cnc2c(F)cc(-c3nccs3)cc2c1O
Second: COc1ccc(Cl)cc1C(=O)NCCc1ccc(-c2ccccc2)c(S(N)(=O)=O)c1
The melting point of the first is higher: 296 to 298 °C for the first, 134 to 136 °C for the second.

Compared with `Fc1nc(Oc2ccc(CCNc3ncnc4nccnc34)cc2)c(F)c(C(F)(F)F)c1F`, `Cc1cccc(C(O)COc2ccc(CC3SC(=O)NC3=O)cc2)n1` (stereo not given) is higher in melting point: 103 to 108 °C for the first, 154 to 155 °C for the second.

First: Nc1c(C(=O)c2ccccc2)cnc2[nH]ncc12
Second: O=C(NCc1ccccc1)c1ccnc(NC(=O)C2CCCC2)c1
The melting point of the first is higher: 282 to 283 °C for the first, 55 to 57 °C for the second.

Compared with `COC(=O)CCc1cc2nc(Cl)ccc2n1S(=O)(=O)c1ccc2ncsc2c1`, `CCCCc1nc2cc(C)c(C)cc2n1Cc1ccc(C#N)cc1` is higher in melting point: 146 °C for the first, 160 °C for the second.

First: CCOC(=O)C=CN1C(C)(C)CC(=O)CC1(C)C
Second: CCOC(=O)C1=C(C)NC(=O)N(C(N)=O)C1c1cccc([N+](=O)[O-])c1 (stereo not given)
The melting point of the first is lower: 145 °C for the first, 213 to 215 °C for the second.

First: Fc1ccc(-c2ccn(C3CN4CCC3CC4)c2-c2ccncc2)cc1 (stereo not given)
Second: Nc1nc(N)nc(-c2ccc(-c3ccc(F)cc3)cc2)n1
The melting point of the first is lower: 229 to 230 °C for the first, > 260 °C for the second.

First: COc1ccc(-n2nc(Sc3cc(OC)cc(OC)c3)c(C)c(C#N)c2=O)cc1
Second: COc1cc(OC)cc(N2CCN(C(=S)Nc3cc4c(nc3OC)CCC4)CC2)c1
The melting point of the first is higher: 181 to 184 °C for the first, 169 to 170 °C for the second.

First: Cc1nc(CC2CCc3c(C)c4ccccc4n3C2=O)c(C)[nH]1 (stereo not given)
Second: CCOc1ccc2nc(C)cc(=O)n2c1C
The melting point of the first is higher: 219 to 221 °C for the first, 112 to 114 °C for the second.

First: ON=C1c2ccccc2CCC1c1ccccc1 (stereo not given)
Second: NCC1Cc2cc(-c3ccccc3)cc(-c3ccccc3)c2O1 (stereo not given)
The melting point of the first is lower: 156 to 157 °C for the first, > 250 °C for the second.

First: CC(C)CSc1ccnc(OS(C)(=O)=O)c1
Second: CS(=O)(=O)c1ccc(C(CC2CCCC2)C(=O)O)cc1F (stereo not given)
The melting point of the first is lower: 34 to 35 °C for the first, 115 to 117 °C for the second.

Compared with `C=Cc1c(C(=O)OC)nc(Cl)c(Cl)c1N`, `CC(C)OC(=O)c1nc(Cl)sc1Cl` is lower in melting point: 96 to 97 °C for the first, 46 °C for the second.

Compared with `CCCCCCCCCCCCCCCc1cccc(OC)c1C1NC(=O)NC(C)=C1C(=O)OCC` (stereo not given), `C=CCC(O)CCCCCCCCCCCCCCC` (stereo not given) is lower in melting point: 91 to 93 °C for the first, 37 to 39.5 °C for the second.

First: Cn1cc(CN2CCCNC2=C[N+](=O)[O-])cn1
Second: CC1(C)CN(CCN2CCN(c3cccc(Cl)c3)C2=O)C1
The melting point of the first is higher: 186 to 190 °C for the first, 84 to 85 °C for the second.

First: CC1(C)CCC(C)(C)c2cc(-c3cc(-c4ccc(C(=O)O)c(O)c4)ccc3-c3ccccc3)ccc21
Second: NS(=O)(=O)c1ccc(-n2nc(NC(=O)Nc3cccc(C(F)(F)F)c3)cc2-c2ccccc2)cc1
The melting point of the first is lower: 134 to 136 °C for the first, 195 to 197 °C for the second.

First: Cc1ccc(C(N)=O)cc1NC(=O)COCCO
Second: Cc1cc(C(N)=O)co1
The melting point of the first is lower: 118 to 119 °C for the first, 158 °C for the second.

First: CC#CCOc1cc(/C=C/C(=O)Nc2cc(Cl)ccc2C(=O)NC)ccc1OC
Second: CCOc1cc(OC)cc(OP(=O)(O)O)c1C(=O)C=Cc1ccc(OC)cc1
The melting point of the first is higher: 172 to 173 °C for the first, 72 to 75 °C for the second.

First: CNC(=O)c1cccc(Nc2nc(Nc3ccc4c(c3)C(C)(C)CCC(=O)N4)ncc2Cl)c1
Second: CCCS(=O)(=O)Oc1ccc(-c2nc3cc4c(cc3[nH]2)C(C)(C)CC(=O)N4)cc1
The melting point of the first is higher: 184 °C for the first, 148 to 156 °C for the second.

Compared with `CN(C)NC(=O)N(O)C1c2ccccc2Oc2ccccc21`, `CNC(=O)C(=NOCF)c1ccccc1COc1ccccc1C` is lower in melting point: 196 to 198 °C for the first, 86 to 88 °C for the second.

Compared with `COc1cc(C(=O)O)c(-c2c(C(=O)O)ccc3c2OCO3)cc1OC`, `COC(=O)C(=Cc1cccc([N+](=O)[O-])c1)C(=O)OC` is lower in melting point: 207 to 210 °C for the first, 78 to 80 °C for the second.

Compared with `COc1c(C#N)cc(-c2c3ccccc3cc3sc4ccccc4c23)cc1C#N`, `O=CNc1ccccc1-c1cc2ccccc2[nH]1` is lower in melting point: 214 to 215 °C for the first, 147 to 149 °C for the second.

Compared with `CNc1ccc(-c2ccnc(-c3cn(C)c(=O)n3-c3ccc(C(C)(C)C#N)cc3)c2)cn1`, `N=C(NO)c1ccc(-c2cccc(-c3nc4ccc(C(=N)NO)cc4[nH]3)n2)cc1` is higher in melting point: 191 °C for the first, > 290 °C for the second.

Compared with `COC(=O)C1CC(=O)NC(Cc2ccccc2)C1=O` (stereo not given), `COC(=O)CC(=O)C=Cc1ccccc1` is lower in melting point: 146 to 148 °C for the first, 83 °C for the second.

First: CCc1c(C(=O)Cl)cnn1-c1ccc(Cl)cc1
Second: CC(=O)n1nc(-c2ccc(Cl)cc2)nc1C
The melting point of the first is lower: 105 to 107 °C for the first, 132 to 133 °C for the second.

First: N#Cc1cccc(C=CCN2CCc3nc(N)sc3CC2)c1
Second: O=c1[nH]c2ccccc2n1CCCN1CCC(O)(c2ccc(F)cc2)CC1
The melting point of the first is higher: 136 to 140 °C for the first, 135 °C for the second.

Compared with `O=[N+]([O-])c1ccc(C=Cc2ccc(OCCCCCCO)cc2)cc1`, `COc1cc(N)c(Cl)cc1C(=O)NCC1CCN(CCCCCOc2cccc3ccccc23)CC1` is lower in melting point: 118 °C for the first, 91 to 93 °C for the second.

First: COc1ccc(N2C(=O)C(O[Si](C(C)C)(C(C)C)C(C)C)C2c2ccc(C(F)(F)F)cc2)cc1 (stereo not given)
Second: Cc1cc(-n2nc(C(F)F)cc2-c2ccc(S(C)(=O)=O)cc2)ccc1F
The melting point of the first is lower: 132 to 133 °C for the first, 154 to 155 °C for the second.

First: Cc1ccc(S(=O)(=O)OCC2(C)Cc3cc(Cl)cc(OS(=O)(=O)C(F)(F)F)c3O2)cc1 (stereo not given)
Second: CNC(=O)Cn1c(=O)c(=O)[nH]c2cc(C(F)(F)F)c(-n3cccc3)cc21
The melting point of the first is lower: 100 to 102 °C for the first, > 250 °C for the second.

Compared with `Cc1nn(-c2ccccc2)c(Nc2ccccc2)c1CC(=O)O`, `[N-]=[N+]=CC(=O)OC/C=C/c1ccc(NC(=O)OCc2ccccc2)cc1F` is lower in melting point: 111 to 113 °C for the first, 93 to 96 °C for the second.

First: O=C1c2ccccc2C(=O)N1CCCCSc1ccncc1
Second: CC(=O)Nc1ccc(F)c(-c2cccnc2)c1F
The melting point of the first is lower: 106 to 108 °C for the first, 154 to 155 °C for the second.

Compared with `CSc1ccc(O)cn1`, `CCCCn1nnc2cc(C(O)c3ccsc3)ccc21` (stereo not given) is lower in melting point: 133 °C for the first, 80 °C for the second.

First: CNC(=O)C1SCOC(=NO)S1 (stereo not given)
Second: CC(C)NC(=O)N1CCc2[nH]cnc2C1C(C)C (stereo not given)
The melting point of the first is lower: 99 to 102 °C for the first, 202 °C for the second.

Compared with `CCCc1c[nH]c(CCC(=O)N(C)C)c1`, `CC(=O)Nc1c(C)cc(O)c(C)c1C` is higher in melting point: 71 to 72 °C for the first, 189 to 190 °C for the second.

First: COC1OCC[C@@H]1NC(=O)[C@H](CC(C)C)NC(=O)[C@H](CC(C)C)NC(=O)c1ccc2c(c1)Nc1ccccc1O2 (stereo not given in full)
Second: CCOCN1C(C)=C(C(=O)OCC)C(c2cccc([N+](=O)[O-])c2)C(C(=O)OCC)=C1C
The melting point of the first is higher: 178 to 179 °C for the first, 125 °C for the second.

Compared with `CC1(C)[C@H](CN2CCCCS2(=O)=O)CC[C@]1(C)NCC(=O)N1C[C@@H](F)C[C@H]1C#N`, `CCCn1c(COCC)nc2c(N)nc3ccc(OCC(=O)N4CCS(=O)(=O)CC4)cc3c21` is higher in melting point: 186 to 190 °C for the first, 223 to 225 °C for the second.

First: CC(=O)SC[C@H](NC(=O)C(C)C)C(=O)NCCSC(=O)C(C)(C)C
Second: CCCc1nc(-n2cccc2C(=O)C(F)(F)F)c(C(=O)OC)[nH]1
The melting point of the first is lower: 112 to 114 °C for the first, 158 to 159 °C for the second.

Compared with `Cn1cc(-c2cc3cccnc3[nH]2)c2cc(OC3(C(N)=O)CCC3)ccc21`, `C=CCOC(=O)c1c(C)nc2c(cnn2CCC#CC)c1N` is lower in melting point: 267 to 268 °C for the first, 114 to 115 °C for the second.

First: CCCCNC(=NC#N)Nc1ccc(C2=NNC(=O)CC2C)cc1 (stereo not given)
Second: O=C(O)c1cn(C2CC2)c2c(Cl)c(N3CCC(CNCCF)C3)c(F)cc2c1=O (stereo not given)
The melting point of the first is higher: 184 to 186 °C for the first, 138 to 142 °C for the second.

Compared with `CC(C)Oc1cc(-n2c(=O)c3c(n(C)c2=O)CCC3)c(F)cc1Cl`, `CCNc1nc(Cl)c(Br)c(NC2CC2)n1` is lower in melting point: 105 to 107 °C for the first, 100 to 101 °C for the second.

Reference: a melting point compilation (Tetko et al.; mined from patent text by program, amines drawn as free bases though some values may be those of a salt)
